# Measured values reported in patent US6620828B2, “Thiazole compounds and pharmaceutical compositions for inhibiting protein kinases and methods for their use” (Agouron Pharmaceuticals, Inc., priority 1999, dated 2003).
# Experiments:
# Format in all cases: biochemical
# [1] = molecular target: T1, phosphorylated VEGF-R2Δ50 (FLVK-P) (Homo sapiens, UniProt P35968, DEL940-989/E990V); experiment: VEGF-R2 coupled spectrophotometric (FLVK-P) assay; conditions: combinatorial library compounds; for inhibition at 20 µM: read-out: VEGF % inhibition at 20 μM, 20 μM
# T1 construct: VEGF-R2Δ50 contains residues 806-939 and 990-1171; made in house; host or cells: baculovirus/insect cells
# T1 sequence (P35968 with tags, fused parts or gaps DEL940-989/E990V limits assumed): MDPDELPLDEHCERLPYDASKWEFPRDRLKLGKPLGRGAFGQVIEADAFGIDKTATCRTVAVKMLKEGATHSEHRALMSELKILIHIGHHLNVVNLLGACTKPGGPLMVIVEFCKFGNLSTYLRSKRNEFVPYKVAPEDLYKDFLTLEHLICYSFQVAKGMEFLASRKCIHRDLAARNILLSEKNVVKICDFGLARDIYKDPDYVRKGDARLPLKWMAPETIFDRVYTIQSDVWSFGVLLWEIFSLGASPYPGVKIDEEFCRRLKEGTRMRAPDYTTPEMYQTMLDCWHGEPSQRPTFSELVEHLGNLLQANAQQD
# Summary of the method: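 Baculovirus-expressed human VEGF-R2Δ50 (residues 806-939/990-1171, E990V) was autophosphorylated with 3 mM ATP, 40 mM MgCl2 for 2 h at 4° C. ADP formation was coupled via PK/LDH to NADH oxidation, read at 340 nm, with 5.1 mM poly(E4Y1), 1 mM ATP, 25 mM MgCl2, Hepes pH 7.5. Ki came from activity across compound concentrations.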
# [2] = molecular target: T2, FL-CHK1 (Homo sapiens, UniProt O14757); experiment: CHK1 assay; conditions: 20 μM; combinatorial library compounds
# T2 construct: C-terminally His-tagged full-length human CHK1 (FL-CHK1); 6xHis (C); made in house; host or cells: baculovirus/insect cells
# T2 sequence (O14757 1-476): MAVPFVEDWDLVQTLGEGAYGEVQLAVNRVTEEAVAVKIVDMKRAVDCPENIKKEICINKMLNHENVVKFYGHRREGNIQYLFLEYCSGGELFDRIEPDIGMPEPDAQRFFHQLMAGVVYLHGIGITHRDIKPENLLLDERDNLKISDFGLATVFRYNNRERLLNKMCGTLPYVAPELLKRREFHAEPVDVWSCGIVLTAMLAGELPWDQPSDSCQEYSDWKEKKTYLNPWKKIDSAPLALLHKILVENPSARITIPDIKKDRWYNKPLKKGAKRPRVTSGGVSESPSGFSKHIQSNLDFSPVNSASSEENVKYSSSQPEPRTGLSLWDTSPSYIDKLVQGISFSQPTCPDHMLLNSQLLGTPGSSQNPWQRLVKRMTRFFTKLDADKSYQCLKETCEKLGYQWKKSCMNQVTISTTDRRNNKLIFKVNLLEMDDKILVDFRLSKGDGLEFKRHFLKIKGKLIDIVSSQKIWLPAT
# Summary of the method: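 Full-length human CHK1 with C-terminal 6×His tag, made in baculovirus/insect cells, 10 nM, phosphorylating 0.125 mM Syntide-2 with 0.15 mM ATP in 50 mM Tris pH 7.5, 25 mM MgCl2, 400 mM NaCl. PK/LDH-coupled NADH oxidation read at 340 nm. Ki from initial rates over varied compound concentrations.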
# [3] = molecular target: CDK2/Cyclin A complex (Homo sapiens, UniProt P24941); experiment: CDK2/Cyclin A assay; conditions: 1.0 μM; combinatorial library compounds
# Summary of the method: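 Radiometric assay: 150 nM CDK2/cyclin A (insect-cell CDK2, truncated cyclin A) phosphorylates His-tagged Rb fragment (residues 386-928) with 25 μM ATP plus [32P]ATP, pH 7.4 HEPES, 2% DMSO, 30 °C for 20 min. Filter-captured product counted by phosphorimager; apparent Ki from competitive or tight-binding inhibition fits.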
# [4] = molecular target: T3, CDK4/Cyclin D3 complex (Homo sapiens, UniProt P11802); experiment: CDK4/Cyclin D assay; conditions: 1.0 μM; combinatorial library compounds
# T3 construct: made in house; host or cells: insect cells co-infected with baculovirus vectors
# T3 sequence (P11802 whole entry): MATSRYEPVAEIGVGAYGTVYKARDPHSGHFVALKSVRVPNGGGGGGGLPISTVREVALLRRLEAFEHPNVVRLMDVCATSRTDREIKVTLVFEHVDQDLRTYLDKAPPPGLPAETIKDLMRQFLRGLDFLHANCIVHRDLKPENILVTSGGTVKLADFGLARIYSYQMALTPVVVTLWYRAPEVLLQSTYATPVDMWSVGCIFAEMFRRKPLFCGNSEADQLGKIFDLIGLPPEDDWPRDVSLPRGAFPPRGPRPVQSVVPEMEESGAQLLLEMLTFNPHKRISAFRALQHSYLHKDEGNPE
# T3 sequence (P30281 whole entry partner): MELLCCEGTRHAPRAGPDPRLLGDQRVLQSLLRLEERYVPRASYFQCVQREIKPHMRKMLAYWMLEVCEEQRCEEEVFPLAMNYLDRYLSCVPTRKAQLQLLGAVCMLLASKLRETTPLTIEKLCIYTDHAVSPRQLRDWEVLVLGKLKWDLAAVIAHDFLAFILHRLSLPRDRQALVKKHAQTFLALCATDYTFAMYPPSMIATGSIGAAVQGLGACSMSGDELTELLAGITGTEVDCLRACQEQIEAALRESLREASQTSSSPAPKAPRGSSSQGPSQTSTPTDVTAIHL
# Summary of the method: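 Insect-cell-expressed CDK4/cyclin D3 (50 nM) phosphorylating His-tagged Rb fragment (residues 386-928) with 25 μM [^32P]ATP in HEPES pH 7.4, MgCl2, 2% DMSO; 20 min at 30 °C, EDTA stop. Filter-captured 32P by phosphorimager; apparent Ki from competitive or tight-binding inhibition fits.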
Structure (SMILES),inhibition at 20 µM [1],inhibition at 20 µM [2],inhibition at 1 µM [3],inhibition at 1 µM [4],VEGF % inhibition at 20 μM [1],CHK1 % Inhibition at 20 μM [2],CDK2 % Inhibition at 1.0 μM [3],CDK4 % Inhibition at 1.0 μM [4]
COc1cccc(-c2csc(-c3sc(Nc4ccc(C(C)C)cc4)nc3N)n2)c1,10%,3.8%,16%,49.3%,,,,
CN(C)c1ccc(Nc2nc(N)c(-c3nc(-c4cc5cc(Cl)ccc5o4)cs3)s2)cc1,-3%,7.6%,16.9%,29.6%,,,,
CN(C)c1ccc(Nc2nc(N)c(-c3nc(-c4ccc(-c5ccccc5)cc4)cs3)s2)cc1,-12%,5%,14.5%,-12.6%,,,,
Cc1ccc(-c2csc(-c3sc(Nc4ccc(N(C)C)cc4)nc3N)n2)c(C)c1,21%,-0.9%,16.1%,23.3%,,,,
Nc1nc(Nc2ccc(S(N)(=O)=O)cc2)sc1-c1nc(-c2cccc(OC(=O)c3ccccc3)c2)cs1,43%,6.8%,37.2%,-1.9%,,,,
CC(C)c1ccc(Nc2nc(N)c(-c3nc(-c4ccc(Cl)c([N+](=O)[O-])c4)cs3)s2)cc1,7%,23.5%,14.2%,71.5%,,,,
Nc1nc(Nc2ccc(S(N)(=O)=O)cc2)sc1-c1nc(-c2csc3ccccc23)cs1,10%,0.4%,48.9%,44.1%,,,,
CC(C)c1ccc(Nc2nc(N)c(-c3nc(-c4cc(Br)c(Cl)s4)cs3)s2)cc1,25%,9.2%,26%,84.7%,,,,
CC(C)c1ccc(Nc2nc(N)c(-c3nc(-c4ccc(OC(=O)c5ccccc5)cc4)cs3)s2)cc1,-4%,7.5%,73%,45.9%,,,,
CC(C)c1ccc(Nc2nc(N)c(-c3nc(-c4ccc5ccccc5c4)cs3)s2)cc1,-2%,10.7%,17.2%,51.2%,,,,
Cc1c(-c2csc(-c3sc(Nc4ccc(N(C)C)cc4)nc3N)n2)sc2ccc(Cl)cc12 [drawing 550],31%,41.9%,,64.3%,,,17.1%,
CC(C)c1ccc(Nc2nc(N)c(-c3nc(-c4ccc(Cl)c(Cl)c4)cs3)s2)cc1,-4%,0.3%,10.4%,-7.9%,,,,
CC(C)c1ccc(Nc2nc(N)c(-c3nc(-c4ccc(Cl)cc4Cl)cs3)s2)cc1,23%,21.4%,25.7%,81.4%,,,,
Nc1nc(Nc2ccc(S(N)(=O)=O)cc2)sc1-c1nc(-c2ccc(OC(=O)c3ccccc3)cc2)cs1,8%,4.4%,20.7%,-27%,,,,
CN(C)c1ccc(Nc2nc(N)c(-c3nc(-c4ccc(CC(=O)O)s4)cs3)s2)cc1,28%,38.1%,6.3%,69.4%,,,,
Nc1nc(Nc2ccc(S(N)(=O)=O)cc2)sc1-c1nc(-c2ccc([N+](=O)[O-])cc2)cs1,3%,11%,27.7%,-16.3%,,,,

# Next, values leading:
inhibition at 20 µM [1],inhibition at 20 µM [2],inhibition at 1 µM [3],inhibition at 1 µM [4],VEGF % inhibition at 20 μM [1],CHK1 % Inhibition at 20 μM [2],CDK2 % Inhibition at 1.0 μM [3],CDK4 % Inhibition at 1.0 μM [4],Structure (SMILES)
-5%,-9%,18.5%,-26.5%,,,,,CC(C)c1ccc(Nc2nc(N)c(-c3nc(-c4cc(-c5ccc(Cl)c(Cl)c5)no4)cs3)s2)cc1
17%,18.8%,20.5%,70.9%,,,,,CCc1cc2c(cc1-c1csc(-c3sc(Nc4ccc(N(C)C)cc4)nc3N)n1)C(C)(C)CCC2(C)C
49%,25%,10.5%,77%,,,,,CC(C)c1ccc(Nc2nc(N)c(-c3nc(-c4ccc(O)cc4)cs3)s2)cc1
3%,-7.9%,15.1%,49.7%,,,,,CC(C)c1ccc(Nc2nc(N)c(-c3nc(-c4ccc(-c5ccc(Cl)cc5Cl)o4)cs3)s2)cc1
-2%,13.1%,35.9%,31.8%,,,,,CC1(C)CCC(C)(C)c2cc(-c3csc(-c4sc(Nc5ccc(S(N)(=O)=O)cc5)nc4N)n3)ccc21
,,,,12%,14.2%,38.3%,79%,COc1ccc(-c2csc(-c3sc(Nc4ccc(C(C)C)cc4)nc3N)n2)cc1 [drawing 488]
-11%,3.4%,17%,33.2%,,,,,CC(C)c1ccc(Nc2nc(N)c(-c3nc(-c4cc5cc(Cl)ccc5o4)cs3)s2)cc1
34%,46.5%,16.8%,53%,,,,,CN(C)c1ccc(Nc2nc(N)c(-c3nc(-c4ccc(O)c(O)c4)cs3)s2)cc1
13%,3.7%,13.3%,16.3%,,,,,N#Cc1ccc(-c2nc(-c3sc(Nc4ccc(S(N)(=O)=O)cc4)nc3N)cs2)cc1
13%,,,,,2.7%,6.1%,19.1%,COc1ccc(-c2csc(-c3sc(Nc4ccc(N(C)C)cc4)nc3N)n2)cc1 [drawing 525]
29%,20.1%,21.4%,31.8%,,,,,Nc1nc(Nc2ccc(S(N)(=O)=O)cc2)sc1-c1nc(-c2ccc3c(c2)OCCO3)cs1
30%,19.3%,12.5%,72.7%,,,,,CC(C)c1ccc(Nc2nc(N)c(-c3nc(-c4c(Cl)c(Cl)nc(Cl)c4Cl)cs3)s2)cc1
,,,,11%,10.7%,54.2%,40.9%,COc1ccc(-c2csc(-c3sc(Nc4ccc(S(N)(=O)=O)cc4)nc3N)n2)cc1 [drawing 425]
,,,,29%,26.8%,37.3%,65.1%,Cc1c(-c2csc(-c3sc(Nc4ccc(N(C)C)cc4)nc3N)n2)sc2ccc(Cl)cc12 [drawing 552]
,,,,19%,9.7%,56%,70.6%,Cc1c(-c2csc(-c3sc(Nc4ccc(S(N)(=O)=O)cc4)nc3N)n2)sc2ccc(Cl)cc12 [drawing 426]
10%,6.1%,34.8%,29.3%,,,,,CCN(CC)c1ccc(-c2csc(-c3sc(Nc4ccc(S(N)(=O)=O)cc4)nc3N)n2)cc1
47%,25.6%,55.4%,57.8%,,,,,Nc1nc(Nc2ccc(S(N)(=O)=O)cc2)sc1-c1nc(-c2ccccc2[N+](=O)[O-])cs1
18%,32.9%,3.1%,74.4%,,,,,CN(C)c1ccc(Nc2nc(N)c(-c3nc(-c4ccc5c(c4)C(C)(C)CCC5(C)C)cs3)s2)cc1
